In patent US9630958B2, “Triazine compounds” (Sphaera Pharma Pte. Ltd., priority 2012, dated 2017):

How the values were obtained:
Recombinant mTOR (FRAP1) = molecular target: T1, Recombinant mTOR (FRAP1) (Homo sapiens, UniProt P42345); test: mTOR in vitro kinase assay (TR-FRET, phosphorylation of GFP-4E-BP1); format: biochemical; conditions: for inhibition at 1 µM: 1 uM compound, read-out: mTOR % Inhib@1 uM; for IC50: 8 μM ATP, 400 nM GFP-4E-BP1
T1 construct: purchased Invitrogen
How it was run: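 Recombinant human mTOR with GFP-4E-BP1 substrate at 400 nM and 8 μM ATP, 1 h at room temperature, then quenched with 10 mM EDTA plus 2 nM Tb-anti-p4E-BP1 (pThr46) for 1 h. TR-FRET 520/486 nm ratio fitted against inhibitor concentration by four-parameter sigmoidal regression.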

[1] = molecular target: T2, PI3 Kinase alpha (p110 alpha/p85 alpha) (Homo sapiens, UniProt P42336); test: PI3K TR-FRET assay (Transcreener ADP2); format: biochemical; conditions: for inhibition at 1 µM: 1 uM compound, read-out: PI3K % Inhib@1 uM; for IC50: PI3K alpha, 1 μM ATP, 50 μM PIP2
T2 construct: purchased Invitrogen
How it was run: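 p110α/p85α with diC8 PIP2 (50 μM) and 1 μM ATP in 50 mM HEPES pH 7.4, MgCl2, CHAPS, DTT, EGTA; 1 h at room temperature. ADP detected by Transcreener ADP2 TR-FRET (665/615 nm ratio), converted to product via ADP-ATP standard curve; IC50 from four-parameter fit of % inhibition.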

T2 sequence (P42336 whole entry): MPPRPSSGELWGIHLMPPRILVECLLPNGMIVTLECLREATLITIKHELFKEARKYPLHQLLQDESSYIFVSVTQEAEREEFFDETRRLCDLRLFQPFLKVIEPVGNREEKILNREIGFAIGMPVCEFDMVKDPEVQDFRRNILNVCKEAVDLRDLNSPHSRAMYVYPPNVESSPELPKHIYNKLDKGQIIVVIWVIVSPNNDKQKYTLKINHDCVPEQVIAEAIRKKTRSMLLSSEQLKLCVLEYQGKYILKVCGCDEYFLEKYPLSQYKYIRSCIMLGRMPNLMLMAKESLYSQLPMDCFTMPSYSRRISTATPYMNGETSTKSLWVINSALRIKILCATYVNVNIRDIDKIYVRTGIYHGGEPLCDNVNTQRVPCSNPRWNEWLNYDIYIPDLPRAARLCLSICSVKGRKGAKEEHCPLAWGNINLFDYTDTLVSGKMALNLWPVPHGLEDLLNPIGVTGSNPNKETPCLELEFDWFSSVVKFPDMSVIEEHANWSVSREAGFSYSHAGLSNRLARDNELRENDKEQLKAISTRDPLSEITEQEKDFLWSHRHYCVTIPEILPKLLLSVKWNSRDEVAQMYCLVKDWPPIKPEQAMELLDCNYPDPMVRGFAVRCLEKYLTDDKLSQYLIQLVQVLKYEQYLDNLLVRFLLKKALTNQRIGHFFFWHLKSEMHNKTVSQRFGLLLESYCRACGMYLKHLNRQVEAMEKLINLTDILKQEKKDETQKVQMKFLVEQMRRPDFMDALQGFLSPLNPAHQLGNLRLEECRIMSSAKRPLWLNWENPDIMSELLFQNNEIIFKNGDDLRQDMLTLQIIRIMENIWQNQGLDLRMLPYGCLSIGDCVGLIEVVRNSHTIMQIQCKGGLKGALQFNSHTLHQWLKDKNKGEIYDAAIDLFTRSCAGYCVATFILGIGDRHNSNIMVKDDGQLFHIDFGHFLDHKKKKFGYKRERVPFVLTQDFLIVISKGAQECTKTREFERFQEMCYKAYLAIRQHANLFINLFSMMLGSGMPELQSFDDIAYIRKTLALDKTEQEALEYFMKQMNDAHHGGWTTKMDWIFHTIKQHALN
T2 sequence (P27986 whole entry partner): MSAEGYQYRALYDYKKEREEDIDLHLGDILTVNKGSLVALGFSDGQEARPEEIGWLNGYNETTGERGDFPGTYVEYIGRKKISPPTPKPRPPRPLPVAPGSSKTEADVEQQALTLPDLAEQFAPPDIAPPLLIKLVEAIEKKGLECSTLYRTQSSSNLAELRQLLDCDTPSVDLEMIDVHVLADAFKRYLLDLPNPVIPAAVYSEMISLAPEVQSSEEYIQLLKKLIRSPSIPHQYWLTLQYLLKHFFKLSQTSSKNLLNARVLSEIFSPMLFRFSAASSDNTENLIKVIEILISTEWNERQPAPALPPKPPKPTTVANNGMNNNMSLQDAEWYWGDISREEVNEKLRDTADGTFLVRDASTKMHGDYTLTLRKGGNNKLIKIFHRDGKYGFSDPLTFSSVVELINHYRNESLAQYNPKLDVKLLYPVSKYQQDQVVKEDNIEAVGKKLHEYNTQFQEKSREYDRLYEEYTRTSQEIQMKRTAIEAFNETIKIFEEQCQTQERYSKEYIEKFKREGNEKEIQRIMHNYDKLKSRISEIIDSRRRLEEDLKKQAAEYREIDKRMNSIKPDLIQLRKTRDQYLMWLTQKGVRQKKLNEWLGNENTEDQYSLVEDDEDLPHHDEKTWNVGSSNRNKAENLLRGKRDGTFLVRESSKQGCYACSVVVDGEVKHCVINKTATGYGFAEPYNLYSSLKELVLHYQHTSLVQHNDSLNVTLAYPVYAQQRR
T1 sequence (P42345 1360-2549 limits assumed): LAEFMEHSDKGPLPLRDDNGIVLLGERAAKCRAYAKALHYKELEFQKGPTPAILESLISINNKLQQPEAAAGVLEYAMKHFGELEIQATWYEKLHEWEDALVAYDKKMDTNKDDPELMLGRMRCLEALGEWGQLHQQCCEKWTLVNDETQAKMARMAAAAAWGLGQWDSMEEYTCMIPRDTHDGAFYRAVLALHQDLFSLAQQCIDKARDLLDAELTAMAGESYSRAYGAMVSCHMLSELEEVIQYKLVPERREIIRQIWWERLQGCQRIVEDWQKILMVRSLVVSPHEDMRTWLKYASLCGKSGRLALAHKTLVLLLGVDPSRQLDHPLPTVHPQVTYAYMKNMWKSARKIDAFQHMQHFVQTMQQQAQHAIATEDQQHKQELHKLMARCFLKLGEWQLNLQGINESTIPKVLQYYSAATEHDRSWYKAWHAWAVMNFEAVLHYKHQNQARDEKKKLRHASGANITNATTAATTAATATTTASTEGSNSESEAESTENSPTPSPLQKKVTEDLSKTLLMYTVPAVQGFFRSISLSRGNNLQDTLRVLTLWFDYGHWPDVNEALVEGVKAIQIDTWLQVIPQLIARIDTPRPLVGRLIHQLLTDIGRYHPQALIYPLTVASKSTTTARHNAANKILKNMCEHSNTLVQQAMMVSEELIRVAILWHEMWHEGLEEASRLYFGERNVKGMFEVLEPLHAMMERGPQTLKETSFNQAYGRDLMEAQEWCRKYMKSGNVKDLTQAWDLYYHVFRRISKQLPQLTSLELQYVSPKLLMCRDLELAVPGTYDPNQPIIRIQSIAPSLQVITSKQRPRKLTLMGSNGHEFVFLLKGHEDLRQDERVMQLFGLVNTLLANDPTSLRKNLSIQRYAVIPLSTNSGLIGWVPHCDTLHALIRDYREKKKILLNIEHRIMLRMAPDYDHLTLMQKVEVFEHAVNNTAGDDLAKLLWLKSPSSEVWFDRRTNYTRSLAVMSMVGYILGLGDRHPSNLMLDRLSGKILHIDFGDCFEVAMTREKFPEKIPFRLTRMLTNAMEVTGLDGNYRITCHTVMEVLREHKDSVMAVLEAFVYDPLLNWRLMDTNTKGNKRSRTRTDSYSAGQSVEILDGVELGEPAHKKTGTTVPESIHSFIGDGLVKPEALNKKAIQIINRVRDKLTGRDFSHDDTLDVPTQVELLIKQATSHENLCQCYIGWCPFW

Row | Structure (SMILES) | inhibition at 1 µM (Recombinant mTOR (FRAP1)) [%] | IC50 (Recombinant mTOR (FRAP1)) [nM] | inhibition at 1 µM [1] [%] | IC50 [1] [nM]
1 | C[C@@H]1CN(c2nc(Oc3ccc(C(=O)N(C)C)cc3)nc(-c3cnc(N)s3)n2)CCO1 [Compound 10073, (R)-4-((4-(2-Aminothiazol-5-yl)-6-(2-methylmorpholino)-1,3,5-triazin-2-yl)oxy)-N,N-dimethylbenzamide] | > 50 | < 1000 | > 50 | < 1000
2 | CN(C)C(=O)c1ccc(Oc2nc(-c3cnc(N)s3)nc(N3CCO[C@@H]4CCC[C@H]43)n2)cc1 [Compound 10132, 4-(4-(2-aminothiazol-5-yl)-6-((4aR,7aR)-hexahydrocyclopenta[b][1,4]oxazin-4(4aH)-yl)-1,3,5-triazin-2-yloxy)-N,N-dimethylbenzamide] | > 50 | < 1000 | < 50 | < 1000
3 | CNC(=O)Nc1ncc(-c2nc(Oc3ccc(C(=O)N(C)C)cc3)nc(N3CCOC[C@@H]3C)n2)s1 [Compound 10091, (S)-N,N-dimethyl-4-((4-(3-methylmorpholino)-6-(2-(3-methylureido)thiazol-5-yl)-1,3,5-triazin-2-yl)oxy)benzamide] | > 50 | < 1000 | – | < 1000
4 | C[C@H]1COCCN1c1nc(O[C@H]2CC[C@H](C(=O)N(C)C)CC2)nc(-c2ccc(CO)cc2)n1 [Compound 10203, (1S,4r)-4-((4-(4-(hydroxymethyl)phenyl)-6-((S)-3-methylmorpholino)-1,3,5-triazin-2-yl)oxy)-N,N-dimethylcyclohexane-1-carboxamide] | – | > 3000 | < 50 | –
5 | CC[C@@H]1COCCN1c1nc(Oc2ccc(C(=O)N(C)C)cc2)nc(-c2cnc(N)s2)n1 [Compound 10082, (R)-4-((4-(2-Aminothiazol-5-yl)-6-(3-ethylmorpholino)-1,3,5-triazin-2-yl)oxy)-N,N-dimethylbenzamide] | < 50 | – | < 50 | –
6 | CN(C)C(=O)c1ccc(Oc2nc(-c3ccc(N)nc3)nc(N3[C@@H]4CC[C@H]3COC4)n2)cc1 [Compound 10050, 4-(4-(6-aminopyridin-3-yl)-6-((1R,5S)-3-oxa-8-azabicyclo[3.2.1]octan-8-yl)-1,3,5-triazin-2-yloxy)-N,N-dimethylbenzamide] | > 50 | < 1000 | – | > 1000
7 | C[C@@H]1CN(c2nc(Oc3ccc(C(=O)N(C)C)cc3F)nc(-c3cnc(N)s3)n2)[C@@H](C)CO1 [Compound 10057, 4-((4-(2-Aminothiazol-5-yl)-6-((2R,5S)-2,5-dimethylmorpholino)-1,3,5-triazin-2-yl)oxy)-3-fluoro-N,N-dimethylbenzamide] | – | < 1000 | < 50 | –
8 | C[C@H]1COCCN1c1nc(Oc2ccc(C(=O)N(C)C)cc2)nc(-c2cnc(N)cc2C(F)(F)F)n1 [Compound 10066, (S)-4-((4-(6-Amino-4-(trifluoromethyl)pyridine-3-yl)-6-(3-methylmorpholino)-1,3,5-triazin-2-yl)oxy)-N,N-dimethylbenzamide] | – | < 1000 | – | < 1000
9 | CN(C)C(=O)Cc1ccc(Oc2nc(-c3ccc(N)nc3)nc(N3CCOCC3)n2)cc1 [Compound 10180, 2-(4-((4-(6-aminopyridin-3-yl)-6-morpholino-1,3,5-triazin-2-yl)oxy)phenyl)-N,N-dimethylacetamide] | > 50 | < 1000 | – | < 1000
10 | CN(C)C(=O)[C@H]1CC[C@H](Oc2nc(-c3ccc(N)nc3)nc(N3CCOCC3)n2)CC1 [Compound 10049, (1r,4r)-4-(4-(6-aminopyridin-3-yl)-6-morpholino-1,3,5-triazin-2-yloxy)-N,N-dimethylcyclohexanecarboxamide] | > 50 | < 1000 | – | < 1000
11 | C[C@@H]1CN(c2nc(Oc3ccc(C(=O)N(C)C)cc3)nc(-c3cnc(N)s3)n2)C[C@H](C)O1 [Compound 10122, 4-(4-(2-aminothiazol-5-yl)-6-((2S,6R)-2,6-dimethylmorpholino)-1,3,5-triazin-2-yloxy)-N,N-dimethylbenzamide] | > 50 | > 1000 | < 50 | –
12 | C[C@@H]1OCCN(c2nc(Oc3ccc(C(=O)N(C)C)cc3)nc(-c3cnc(N)s3)n2)[C@H]1C [Compound 10142, 4-(4-(2-aminothiazol-5-yl)-6-((2S,3S)-2,3-dimethylmorpholino)-1,3,5-triazin-2-yloxy)-N,N-dimethylbenzamide] | – | < 1000 | – | > 10000
13 | CN(C)C(=O)c1ccc(Oc2nc(-c3cnc(N)s3)nc(N3CC4CCC(C3)O4)n2)c(F)c1 [Compound 10154, 4-(4-(8-oxa-3-aza-bicyclo[3.2.1]octan-3-yl)-6-(2-aminothiazol-5-yl)-1,3,5-triazin-2-yloxy)-3-fluoro-N,N-dimethylbenzamide] | – | < 1000 | < 50 | > 1000
14 | C[C@@H]1COCCN1c1nc(Oc2ccc(C(=O)N(C)C)cc2F)nc(-c2ccc(N)nc2)n1 [Compound 10099, (R)-4-((4-(6-Aminopyridin-3-yl)-6-(3-methylmorpholino)-1,3,5-triazin-2-yl)oxy)-3-fluoro-N,N-dimethylbenzamide] | – | < 1000 | > 50 | < 1000
15 | C[C@H]1CN(c2nc(Oc3ccc(C(=O)N(C)C)cc3F)nc(-c3cnc(N)s3)n2)[C@@H](C)CO1 [Compound 10153, 4-(4-(2-aminothiazol-5-yl)-6-((2S,5S)-2,5-dimethylmorpholino)-1,3,5-triazin-2-yloxy)-3-fluoro-N,N-dimethylbenzamide] | – | < 1000 | < 50 | < 1000
16 | CN(C)C(=O)c1ccc(Oc2nc(-c3cnc(N)s3)nc(N3CCOCC3)n2)c(F)c1 [Compound 10022, 4-(4-(2-aminothiazol-5-yl)-6-morpholino-1,3,5-triazin-2-yloxy)-3-fluoro-N,N-dimethylbenzamide] | > 50 | < 1000 | – | < 1000
17 | C[C@H]1COCCN1c1nc(Oc2ccc(C(=O)N(C)C)cc2F)nc(-c2cnc(N)cc2C(F)(F)F)n1 [Compound 10067, (S)-4-((4-(6-Amino-4-(trifluoromethyl)pyridine-3-yl)-6-(3-methylmorpholino)-1,3,5-triazin-2-yl)oxy)-3-fluoro-N,N-dimethylbenzamide] | – | < 1000 | – | < 1000
18 | C[C@@H]1COCCN1c1nc(Oc2ccc(C(=O)N(C)C)cc2F)nc(-c2cnc(N)s2)n1 [Compound 10156, 4-(4-(2-aminothiazol-5-yl)-6-((R)-3-methylmorpholino)-1,3,5-triazin-2-yloxy)-3-fluoro-N,N-dimethylbenzamide] | – | < 1000 | < 50 | 3000
19 | CN(C)C(=O)c1ccc(Oc2nc(-c3cnc(N)s3)nc(N3CCNC(=O)CC3)n2)cc1 [Compound 10071, 4-((4-(2-Aminothiazol-5-yl)-6-(5-oxo-1,4-diazepan-1-yl)-1,3,5-triazin-2-yl)oxy)-N,N-dimethylbenzamide] | < 50 | – | < 50 | –
20 | CC[C@H]1COCCN1c1nc(Oc2ccc(C(=O)N(C)C)cc2)nc(-c2cnc(N)s2)n1 [Compound 10081, (S)-4-((4-(2-Aminothiazol-5-yl)-6-(3-ethylmorpholino)-1,3,5-triazin-2-yl)oxy)-N,N-dimethylbenzamide] | > 50 | < 1000 | > 50 | < 1000
21 | C[C@H]1OCCN(c2nc(Oc3ccc(C(=O)N(C)C)cc3F)nc(-c3cnc(N)s3)n2)[C@H]1C [Compound 10052, 4-((4-(2-Aminothiazol-5-yl)-6-((2R,3S)-2,3-dimethylmorpholino)-1,3,5-triazin-2-yl)oxy)-3-fluoro-N,N-dimethylbenzamide] | – | < 1000 | > 50 | < 1000
22 | CN(C)C(=O)c1ccc(Oc2nc(-c3cnc(N)s3)nc(N3CCOCC3)n2)cc1 [Compound 10017, 4-(4-(2-aminothiazol-5-yl)-6-morpholino-1,3,5-triazin-2-yloxy)-N,N-dimethylbenzamide] | – | < 1000 | – | < 1000
23 | C[C@@H]1CN(c2nc(Oc3ccc(C(=O)N(C)C)cc3)nc(-c3cnc(N)s3)n2)[C@@H](C)CO1 [Compound 10076, 4-((4-(2-Aminothiazol-5-yl)-6-((2R,5S)-2,5-dimethylmorpholino)-1,3,5-triazin-2-yl)oxy)-N,N-dimethylbenzamide] | > 50 | < 1000 | < 50 | > 1000
24 | CN(C)C(=O)c1ccc(Oc2nc(-c3cnc(N)s3)nc(N3CC4CCC(C3)O4)n2)cc1 [Compound 10075, 4-((4-(2-Aminothiazol-5-yl)-6-(8-oxa-3-azabicyclo[3.2.1]octan-3-yl)-1,3,5-triazin-2-yl)oxy)-N,N-dimethylbenzamide] | > 50 | < 1000 | < 50 | > 1000
25 | NC(=O)c1ccc(Oc2nc(-c3cnc(N)s3)nc(N3CCOCC3)n2)cc1 [Compound 10201, 4-((4-(2-aminothiazol-5-yl)-6-morpholino-1,3,5-triazin-2-yl)oxy)benzamide] | < 50 | – | – | < 1000
26 | C[C@@H]1OCCN(c2nc(Oc3ccc(C(=O)N(C)C)cc3F)nc(-c3cnc(N)s3)n2)[C@H]1C [Compound 10053, 4-((4-(2-Aminothiazol-5-yl)-6-((2S,3S)-2,3-dimethylmorpholino)-1,3,5-triazin-2-yl)oxy)-3-fluoro-N,N-dimethylbenzamide] | – | < 1000 | – | > 1000
